We go through four compounds from ChEMBL document CHEMBL1201862, “PubChem BioAssay data set” (2004).

The GI50 is the concentration that inhibits growth by half.

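In this assay, cells in 96-well plates receive the compound at five concentrations for 48 hours. Endpoints are linearly interpolated between the surrounding concentrations. At the GI50, growth is halved.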 Activity calls are given as the source filed them. Cut-off read from the data, not from the text of the source: active = GI50 up to about 1.1 µM and inactive = higher. Where only a bound is given, the exact number is not on record here.

Test systems include NCI-H226; EKVX; MDA-MB-231; SK-MEL-28; ACHN; OVCAR-5; HOP-62; RPMI-8226; IGROV-1; TK-10; HCT-116; SK-MEL-2; M14; T47D; BT-549; UACC-257; UACC-62; MCF7; HT-29; SNB-75.
Common to all, as to test: DTP human tumour cell line panel, 48 h

For `N=C(N)NS(=O)(=O)c1ccc(NC(=O)c2ccc3nc4ccccc4c(N)c3c2)cc1`, the GI50 in the test with NCI-H226, in the test with EKVX, with MDA-MB-231, in the test on SK-MEL-28, in the test with ACHN and in the test on OVCAR-5 was > 100 µM (inactive) throughout. The GI50 in the test on HOP-62, in the test on RPMI-8226, in the test on IGROV-1, in the test on TK-10, with HCT-116 and in the test with SK-MEL-2 was > 100 µM (inactive) each time. The GI50 in the test on M14, in the test with T47D, in the test on BT-549, in the test on UACC-257, with UACC-62 and in the test on MCF7 was > 100 µM (inactive) throughout. Besides, the GI50 in the test on HT-29 and with SNB-75 was > 100 µM (inactive) in each case.

For the compound `O=C(O)CCc1ccc(-c2ccccc2)[nH]1`, the GI50 in the test on NCI-H226, in the test with EKVX, in the test with MDA-MB-231, in the test on SK-MEL-28, in the test on ACHN and with OVCAR-5 was > 100 µM (inactive) throughout. The GI50 with HOP-62, in the test on RPMI-8226, in the test on IGROV-1, with TK-10, in the test with HCT-116 and in the test with SK-MEL-2 was > 100 µM (inactive) throughout. Further, the GI50 in the test with M14, in the test with T47D, in the test on BT-549, in the test with UACC-257, with UACC-62 and in the test with MCF7 was > 100 µM (inactive) throughout. In addition, the GI50 with HT-29 and in the test with SNB-75 was > 100 µM (inactive) each time.

Turning to `CC(=O)NC1C(OCc2ccccc2)OC(CO)C(O)C1OCC(=O)N[C@@H](C)C(=O)N[C@H](CCC(=O)NCCCCNc1c2ccccc2nc2cccc([N+](=O)[O-])c12)C(N)=O` (stereo not given in full), the GI50 was 1.84 µM (inactive) in the test with NCI-H226; 2.07 µM (inactive) in the test with EKVX; 2.5 µM (inactive) in the test on MDA-MB-231; 4.5 µM (inactive) in the test with SK-MEL-28; 1.33 µM (inactive) with ACHN; 3.56 µM (inactive) in the test on OVCAR-5. For the same compound, the GI50 is 3.69 µM (inactive) in the test on HOP-62; 1.64 µM (inactive) with RPMI-8226; 0.804 µM (active) in the test on IGROV-1; 1.47 µM (inactive) in the test with TK-10; 0.637 µM (active) in the test on HCT-116; 2.51 µM (inactive) in the test with SK-MEL-2. The GI50 in the test with M14 is 2.23 µM (inactive); in the test on T47D, 1.61 µM (inactive); in the test with BT-549, 2.74 µM (inactive); in the test on UACC-257, 2.13 µM (inactive); in the test with UACC-62 it was 1.51 µM (inactive); in the test on MCF7, 0.771 µM (active). Further, the GI50 is 1.18 µM (inactive) with HT-29 and 1.79 µM (inactive) with SNB-75.

On to `CCOC(CBr)OC1C(=O)OCC1(C)C` (stereo not given), for which the GI50 with NCI-H226, in the test with EKVX, in the test on MDA-MB-231, in the test with SK-MEL-28, in the test on ACHN and with OVCAR-5 was > 100 µM (inactive) throughout. The GI50 in the test with HOP-62, with RPMI-8226, in the test with IGROV-1, in the test on TK-10, with HCT-116 and in the test with SK-MEL-2 was > 100 µM (inactive) in each case. Besides, the GI50 in the test with M14, in the test on T47D, in the test on BT-549, with UACC-257, in the test on UACC-62 and in the test with MCF7 was > 100 µM (inactive) in each case. The GI50 in the test with HT-29 and in the test with SNB-75 was > 100 µM (inactive) each time.
